Source: ChEMBL document CHEMBL3407459, “Synthesis and antimicrobial activity of novel structural hybrids of benzofuroxan and benzothiazole derivatives” (2015)

Key:
Escherichia coli [1] = assay: Antibacterial activity against Escherichia coli MG1655 harboring pRecA-lux assessed as maximum induction factor at 10^-11 M after 120 mins by luminometric analysis; type: functional, K-12 substr. MG1655
Escherichia coli [2] = assay: Antibacterial activity against Escherichia coli MG1655 harboring pColD-lux assessed as maximum induction factor at 10^-11 M after 120 mins by luminometric analysis; type: functional, K-12 substr. MG1655
[3] = Activation of quorum sensing system luxR in Escherichia coli MG1655 harboring pVFR1-lux assessed as maximum induction factor at 10^-11 M after 120 mins by luminometric analysis; conditions: Escherichia coli str. K-12 substr. MG1655
Escherichia coli [4] = assay: Antibacterial activity against Escherichia coli MG1655 harboring pKatG-lux assessed as maximum induction factor at 10^-12 M after 120 mins by luminometric analysis; type: functional, K-12 substr. MG1655
Escherichia coli [5] = assay: Antibacterial activity against Escherichia coli MG1655 harboring pSoxS-lux assessed as maximum induction factor at 10^-13 M after 120 mins by luminometric analysis; type: functional, K-12 substr. MG1655
Escherichia coli [6] = assay: Antibacterial activity against Escherichia coli MG1655 harboring pColD-lux assessed as maximum induction factor at 10^-13 M after 120 mins by luminometric analysis; type: functional, K-12 substr. MG1655
Escherichia coli [7] = assay: Antibacterial activity against Escherichia coli MG1655 harboring pIbpA-lux assessed as maximum induction factor at 10^-13 M after 120 mins by luminometric analysis; type: functional, K-12 substr. MG1655
Escherichia coli [8] = assay: Antibacterial activity against Escherichia coli MG1655 harboring pRecA-lux assessed as maximum induction factor at 10^-14 M after 120 mins by luminometric analysis; type: functional, K-12 substr. MG1655
Escherichia coli [9] = assay: Antibacterial activity against Escherichia coli MG1655 harboring pColD-lux assessed as maximum induction factor at 10^-14 M after 120 mins by luminometric analysis; type: functional, K-12 substr. MG1655
Escherichia coli [10] = assay: Antibacterial activity against Escherichia coli MG1655 harboring pGrpE-lux assessed as maximum induction factor at 10^-14 M after 120 mins by luminometric analysis; type: functional, K-12 substr. MG1655
Escherichia coli [11] = assay: Antibacterial activity against Escherichia coli MG1655 harboring pIbpA-lux assessed as maximum induction factor at 10^-14 M after 120 mins by luminometric analysis; type: functional, K-12 substr. MG1655
Vibrio sp. [12] = assay: Antibacterial activity against Vibrio aqamarinus VKPM B-11245 assessed as toxicity index at 10^-3 M measured for 2 hrs by luminometric analysis; type: functional
Vibrio sp. [13] = assay: Antibacterial activity against Vibrio aqamarinus VKPM B-11245 assessed as toxicity index at 10^-4 M measured for 2 hrs by luminometric analysis; type: functional
Vibrio sp. [14] = assay: Antibacterial activity against Vibrio aqamarinus VKPM B-11245 assessed as toxicity index at 10^-8 M measured for 2 hrs by luminometric analysis; type: functional
Vibrio sp. [15] = assay: Antibacterial activity against Vibrio aqamarinus VKPM B-11245 assessed as toxicity index at 10^-9 M measured for 2 hrs by luminometric analysis; type: functional
Vibrio sp. [16] = assay: Antibacterial activity against Vibrio aqamarinus VKPM B-11245 assessed as toxicity index at 10^-10 M measured for 2 hrs by luminometric analysis; type: functional
Vibrio sp. [17] = assay: Antibacterial activity against Vibrio aqamarinus VKPM B-11245 assessed as toxicity index at 10^-12 M measured for 2 hrs by luminometric analysis; type: functional
Escherichia coli [18] = assay: Antibacterial activity against Escherichia coli MG1655 harboring pXen7 assessed as toxicity index at 10^-3 M measured for 2 hrs by luminometric analysis; type: functional, K-12 substr. MG1655
Escherichia coli [19] = assay: Antibacterial activity against Escherichia coli MG1655 harboring pXen7 assessed as toxicity index at 10^-5 M measured for 2 hrs by luminometric analysis; type: functional, K-12 substr. MG1655
Escherichia coli [20] = assay: Antibacterial activity against Escherichia coli MG1655 harboring pXen7 assessed as toxicity index at 10^-12 M measured for 2 hrs by luminometric analysis; type: functional, K-12 substr. MG1655
Escherichia coli [21] = assay: Antibacterial activity against Escherichia coli MG1655 harboring pRecA-lux assessed as maximum induction factor at 10^-3 M after 120 mins by luminometric analysis; type: functional, K-12 substr. MG1655
Escherichia coli [22] = assay: Antibacterial activity against Escherichia coli MG1655 harboring pGrpE-lux assessed as maximum induction factor at 10^-3 M after 120 mins by luminometric analysis; type: functional, K-12 substr. MG1655
Escherichia coli [23] = assay: Antibacterial activity against Escherichia coli MG1655 harboring pIbpA-lux assessed as maximum induction factor at 10^-3 M after 120 mins by luminometric analysis; type: functional, K-12 substr. MG1655
[24] = Activation of quorum sensing system luxR in Escherichia coli MG1655 harboring pVFR1-lux assessed as maximum induction factor at 10^-3 M after 120 mins by luminometric analysis; conditions: Escherichia coli str. K-12 substr. MG1655
Escherichia coli [25] = assay: Antibacterial activity against Escherichia coli MG1655 harboring pGrpE-lux assessed as maximum induction factor at 10^-4 M after 120 mins by luminometric analysis; type: functional, K-12 substr. MG1655
Escherichia coli [26] = assay: Antibacterial activity against Escherichia coli MG1655 harboring pIbpA-lux assessed as maximum induction factor at 10^-4 M after 120 mins by luminometric analysis; type: functional, K-12 substr. MG1655
Escherichia coli [27] = assay: Antibacterial activity against Escherichia coli MG1655 harboring pKatG-lux assessed as maximum induction factor at 10^-5 M after 120 mins by luminometric analysis; type: functional, K-12 substr. MG1655
Escherichia coli [28] = assay: Antibacterial activity against Escherichia coli MG1655 harboring pColD-lux assessed as maximum induction factor at 10^-5 M after 120 mins by luminometric analysis; type: functional, K-12 substr. MG1655
Escherichia coli [29] = assay: Antibacterial activity against Escherichia coli MG1655 harboring pGrpE-lux assessed as maximum induction factor at 10^-5 M after 120 mins by luminometric analysis; type: functional, K-12 substr. MG1655
Escherichia coli [30] = assay: Antibacterial activity against Escherichia coli MG1655 harboring pIbpA-lux assessed as maximum induction factor at 10^-5 M after 120 mins by luminometric analysis; type: functional, K-12 substr. MG1655
Escherichia coli [31] = assay: Antibacterial activity against Escherichia coli MG1655 harboring pGrpE-lux assessed as maximum induction factor at 10^-6 M after 120 mins by luminometric analysis; type: functional, K-12 substr. MG1655
Escherichia coli [32] = assay: Antibacterial activity against Escherichia coli MG1655 harboring pIbpA-lux assessed as maximum induction factor at 10^-6 M after 120 mins by luminometric analysis; type: functional, K-12 substr. MG1655
Escherichia coli [33] = assay: Antibacterial activity against Escherichia coli MG1655 harboring pKatG-lux assessed as maximum induction factor at 10^-7 M after 120 mins by luminometric analysis; type: functional, K-12 substr. MG1655
Escherichia coli [34] = assay: Antibacterial activity against Escherichia coli MG1655 harboring pRecA-lux assessed as maximum induction factor at 10^-7 M after 120 mins by luminometric analysis; type: functional, K-12 substr. MG1655
Escherichia coli [35] = assay: Antibacterial activity against Escherichia coli MG1655 harboring pIbpA-lux assessed as maximum induction factor at 10^-7 M after 120 mins by luminometric analysis; type: functional, K-12 substr. MG1655
Escherichia coli [36] = assay: Antibacterial activity against Escherichia coli MG1655 harboring pSoxS-lux assessed as maximum induction factor at 10^-8 M after 120 mins by luminometric analysis; type: functional, K-12 substr. MG1655
[37] = Activation of quorum sensing system luxR in Escherichia coli MG1655 harboring pVFR1-lux assessed as maximum induction factor at 10^-8 M after 120 mins by luminometric analysis; conditions: Escherichia coli str. K-12 substr. MG1655
Escherichia coli [38] = assay: Antibacterial activity against Escherichia coli MG1655 harboring pRecA-lux assessed as maximum induction factor at 10^-9 M after 120 mins by luminometric analysis; type: functional, K-12 substr. MG1655
Escherichia coli [39] = assay: Antibacterial activity against Escherichia coli MG1655 harboring pIbpA-lux assessed as maximum induction factor at 10^-9 M after 120 mins by luminometric analysis; type: functional, K-12 substr. MG1655
Escherichia coli [40] = assay: Antibacterial activity against Escherichia coli MG1655 harboring pKatG-lux assessed as maximum induction factor at 10^-11 M after 120 mins by luminometric analysis; type: functional, K-12 substr. MG1655

O=[N+]([O-])c1cc([N+](=O)[O-])c2no[n+]([O-])c2c1Sc1nc2ccccc2s1 gave an Activity (Escherichia coli [1]) of 1.03, an Activity (Escherichia coli [2]) of 1.07 and an Activity [3] of 1.51. The Activity (Escherichia coli [4]) was 1.12, the Activity (Escherichia coli [5]) was 1.03 and the Activity (Escherichia coli [6]) was 1.01. It also gave an Activity (Escherichia coli [7]) of 1.37, an Activity (Escherichia coli [8]) of 1.07 and an Activity (Escherichia coli [9]) of 1.07. For the same compound, the Activity (Escherichia coli [10]) was 1.13, the Activity (Escherichia coli [11]) was 1.46 and the Activity (Vibrio sp. [12]) was 98.83. It also gave an Activity (Vibrio sp. [13]) of 99.1, an Activity (Vibrio sp. [14]) of 5.97 and an Activity (Vibrio sp. [15]) of 0. The Activity (Vibrio sp. [16]) was 11.61, the Activity (Vibrio sp. [17]) was 0 and the Activity (Escherichia coli [18]) was 99.87. For the same compound, the Activity (Escherichia coli [19]) was 33.59, the Activity (Escherichia coli [20]) was 10.52 and the Activity (Escherichia coli [21]) was 0.25. For the same compound, the Activity (Escherichia coli [22]) was 0.35, the Activity (Escherichia coli [23]) was 1.19 and the Activity [24] was 1.68. The Activity (Escherichia coli [25]) was 0.51, the Activity (Escherichia coli [26]) was 0.63 and the Activity (Escherichia coli [27]) was 0.71. It also gave an Activity (Escherichia coli [28]) of 0.87, an Activity (Escherichia coli [29]) of 0.88 and an Activity (Escherichia coli [30]) of 1.08. It also gave an Activity (Escherichia coli [31]) of 1.15, an Activity (Escherichia coli [32]) of 1.28 and an Activity (Escherichia coli [33]) of 0.91. It also gave an Activity (Escherichia coli [34]) of 1.01, an Activity (Escherichia coli [35]) of 1.12 and an Activity (Escherichia coli [36]) of 1.27. For the same compound, the Activity [37] was 2.77, the Activity (Escherichia coli [38]) was 1.02 and the Activity (Escherichia coli [39]) was 1.09. It also gave an Activity (Escherichia coli [40]) of 1.03.
